What was measured:
[1] = tested on: lung squamous cell carcinoma in the histopathological stage I; test: multicenter double blind comparative clinical test, ubenimex preparation vs placebo after complete resection; type: in vivo, human
Experimental: With complete resection patients of lung squamous cell carcinoma in the histopathological stage I, a multicenter double blind comparative test using an ubenimex preparation (containing 30 mg ubenimex) and a placebo preparation (a control contentaining no ubenimex) was carried out. The ubenimex preparation or the placebo preparation was administered orally once a day. The dosing period of these preparations was 2 years after surgical resection. The observation period was 5 years or more including the subsequent period of 3 years or more of no administration after the dosing period. The survival time and recurrence-free survival time in the collected 389 cases (189 cases at the stage IA and 200 cases at the stage IB) were compared between the two groups, namely the ubenimex group and the placebo group by the Kaplan-Meier method. Tables 1 and 2 show the results of the statistic analysis by the generalized Wilcoxon test and the Log-Rank test. […] In these tables, the “U group” means the ubenimex-administered group and the “P group” means the placebo-administered group.

[2] = tested on: lung squamous cell carcinoma; conditions: histopathological stage I; 30 mg daily for one year or longer; 21 cases; with or without tegaful; cited from earlier work
[3] = tested on: mice; conditions: 298 mg/kg (i.p.); cited from earlier work
[4] = tested on: non-small cell lung cancer; conditions: histopathological stages I and II; 90 mg twice weekly for 5 years; 227 cases; cited from earlier work
[5] = tested on: humans; parameters: dose or concentration left out as unconfirmed; conditions: cited from earlier work
[6] = Stage IA (189 cases), 30 mg orally once a day for 2 years
[7] = Stage IB (200 cases), 30 mg orally once a day for 2 years
[8] = total cases stage I (389 cases), 30 mg orally once a day for 2 years after resection, Kaplan-Meier

Compound: CC(C)C[C@H](NC(=O)[C@@H](O)[C@H](N)Cc1ccccc1)C(=O)O [ubenimex, (−)-N-((2S, 3R)-3-amino-2-hydroxy-4-phenylbutyryl)-L-leucine]
- incidence of appetite loss (only adverse effect significantly occurring) ([1]; 30 mg orally once a day for 2 years): 2.5%
- 5-year recurrence-free survival ratio [1, 6]: 73%
- 5-year survival ratio (survival time) [1, 6]: 84%
- 5-year recurrence-free survival ratio [1, 7]: 68%
- 5-year survival ratio (survival time) [1, 7]: 77%
- 5-year recurrence-free survival ratio [1, 8]: 70%
- 5-year survival ratio (survival time) [1, 8]: 81%
- survival time vs ubenimex non-administered group [2]: prolonged
- toxicity in mice [3]: no observed toxicity
- recurrence-free survival time vs non-administered group [4]: favorable trend compared with the non-administered group in terms of recurrence-free survival time but the trend is far from significance
- adverse effects in humans [5]: no specific adverse effects observed
